# Columns and labels:
# [1] = target: T1, Dermatophagoides farinae allergen (DerfII) (Dermatophagoides farinae, UniProt Q00855); type: biochemical; conditions: 1 mg of sample
# T1 sequence (Q00855 18-146): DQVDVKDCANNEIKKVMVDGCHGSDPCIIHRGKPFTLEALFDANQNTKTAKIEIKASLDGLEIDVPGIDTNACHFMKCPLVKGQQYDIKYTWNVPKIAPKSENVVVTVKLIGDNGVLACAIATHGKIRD
# Protocol: (§3) The anti-allergen effect of the present invention is evaluated by a sandwich ELISA method, which is widely known as a method for detecting/quantifying an antigen, and is expressed as the percentage allergen inactivation shown in Equation 1. The initial amount of allergen means the amount of allergen used in an ELISA evaluation, and the amount of allergen remaining means the amount of allergen after contacting a sample.
# (§4) Percentage allergen inactivation=(1−amount of allergen remaining/initial amount of allergen)×100(%) <Equation 1>
# Anti-allergen effects were evaluated by a sandwich ELISA method employing Dermatophagoides farinae allergen (allergen generally called DerfII) and Cryptomeria japonica pollen allergen (allergen generally called Cryj1). […]
# 1 mg or 10 mg of a sample was weighed, and 500 μL of Dermatophagoides farinae allergen (DerfII) prepared at 40 ng/mL using an antigen diluent was added thereto. […] After 30 minutes, 2N sulfuric acid was added so as to stop the reaction, and the absorbance at 490 nm was measured. The results were expressed as percentage allergen inactivation of various samples by determining the relationship between amount of allergen and absorbance from an evaluation carried out without using a sample, determining the amount of allergen remaining from the absorbance obtained when evaluating various types of samples, and calculating from equation 1.
# [2] = target: T2, Cryptomeria japonica pollen allergen (Cryj1) (Cryptomeria japonica, UniProt P18632); type: biochemical; conditions: 1 mg of sample
# T2 sequence (P18632 22-374): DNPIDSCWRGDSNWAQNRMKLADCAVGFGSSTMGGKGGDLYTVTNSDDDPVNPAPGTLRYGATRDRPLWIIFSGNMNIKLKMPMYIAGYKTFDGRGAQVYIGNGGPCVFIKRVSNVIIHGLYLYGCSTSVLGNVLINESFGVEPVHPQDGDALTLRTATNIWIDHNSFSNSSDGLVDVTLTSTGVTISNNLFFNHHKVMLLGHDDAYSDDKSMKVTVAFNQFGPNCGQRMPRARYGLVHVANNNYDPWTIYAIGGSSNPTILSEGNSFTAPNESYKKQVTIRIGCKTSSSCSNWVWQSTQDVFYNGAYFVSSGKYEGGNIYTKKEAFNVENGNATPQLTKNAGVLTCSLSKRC
# Protocol: as §3, §4
# The test procedure for the sandwich ELISA method when Cryptomeria japonica pollen allergen was used was as follows.
# 1 mg or 10 mg of a sample was weighed, and 500 μL of Cryptomeria japonica pollen allergen (Cryj1) prepared at 10 ng/mL using an antigen diluent was added thereto. […] After 2 hours, the antibody liquid was discarded, each well was washed with washing buffer, a substrate liquid was added to each well, and the wells were allowed to stand at room temperature. After 10 minutes, 2N sulfuric acid was added so as to stop the reaction, and the absorbance at 490 nm was measured. The results are expressed as percentage allergen inactivation of various types of samples by calculating from Equation 1 by the same method as for Dermatophagoides farinae allergen.
# [3] = target: T3, Dermatophagoides farinae allergen (Den) (Dermatophagoides farinae, UniProt Q00855); test: ELISA, anti-allergen effect of processed fiber product; type: biochemical; conditions: fabric after washing in 500 mL ion exchanged water 1 minute, air-dried; standardized to blank = 0
# T3 sequence (Q00855 18-146): T1 sequence (Q00855 18-146)
# Protocol: When a test target is an article comprising another substance in addition to an anti-allergen agent, such as a coating agent containing an anti-allergen agent, a resin kneaded with an anti-allergen agent, or a fiber having an anti-allergen agent attached thereto, a blank test is carried out using the same article except that the anti-allergen agent is excluded, and other measurement results may be standardized so that the percentage allergen inactivation of the blank test becomes 0. In this case, as long as it is stated that a measurement result is standardized, the value after standardization may be used as the percentage allergen inactivation.
# The anti-allergen effects of a processed fiber product were evaluated as percentage anti-allergen inactivation from Equation 1 above by measuring absorbance by the same ELISA method as for a solid acid powder using Dermatophagoides farinae allergen (Den) as the allergen and dividing […] of fiber into 8, and comparing with the absorbance when a fiber product having no solid acid added thereto was used.
# [4] = Yellowness (YI value, JIS-K7103-1977); type: physicochemical; conditions: powder
# Excerpt: With regard to a preferred yellowness, the YI value in accordance with JIS-K7103-1977 is preferably 50 or less, more preferably 20 or less, and yet more preferably 15 or less.
# [5] = Discoloration test in PBS or ion exchanged water; type: physicochemical
# Protocol: (§1) 1 mg of anti-allergen agent (1) of Example 2-1 was placed in 0.5 mL of PBS (pH 7.29, containing 0.1% Tween 20 and 0.001% BSA) and allowed to stand at room temperature for 3 days, color change and allergen inactivating effect were then measured, and the results are shown in Table 7.
# 1 mg of anti-allergen agent (1) of Example 2-1 was placed in 0.5 mL of ion exchanged water (pH 6.37) and allowed to stand at room temperature for 7 days, color change was then examined, and the result is shown in Table 7.
# (§2) 1 mg of tannic acid was placed in 0.5 mL of PBS (pH 7.29, containing 0.1% Tween 20 and 0.001% BSA) and allowed to stand at room temperature for 3 days, color change and allergen inactivating effect were then measured, and the results are shown in Table 7.
# 1 mg of tannic acid was placed in 0.5 mL of ion exchanged water (pH 6.37) and allowed to stand at room temperature for 7 days, color change was examined, and the result is shown in Table 7.
# allergen = test: Allergen inactivating effect after standing in PBS (discoloration test); type: biochemical; conditions: 1 mg after 3 days in 0.5 mL PBS at room temperature
# Protocol: as §1, §2
smiles,measurement,setting,value
"O=C(OC[C@H]1O[C@@H](OC(=O)c2cc(O)c(O)c(OC(=O)c3cc(O)c(O)c(O)c3)c2)[C@H](OC(=O)c2cc(O)c(O)c(OC(=O)c3cc(O)c(O)c(O)c3)c2)[C@@H](OC(=O)c2cc(O)c(O)c(OC(=O)c3cc(O)c(O)c(O)c3)c2)[C@@H]1OC(=O)c1cc(O)c(O)c(OC(=O)c2cc(O)c(O)c(O)c2)c1)c1cc(O)c(O)c(OC(=O)c2cc(O)c(O)c(O)c2)c1 [Comparative Example 2-1, Tannic Acid]",Percentage allergen inactivation (%) DerfII,[1],95%
same,Percentage allergen inactivation (%) Cryj1,[2],97%
same,Percentage allergen inactivation (%),[3],activity disappeared after washing
same,Yellowness,[4],71.28
same,Yellowness,[4]; listed as tannic acid,71.8
same,Color of solution (after evaluation),"[5]; 1 mg in 0.5 mL PBS pH 7.29 (0.1% Tween 20, 0.001% BSA), room temperature, 3 days",Brown
same,Color of solution (after evaluation),"[5]; 1 mg in 0.5 mL ion exchanged water pH 6.37, room temperature, 7 days",Brown
same,Percentage allergen inactivation (%),allergen,Less than 50%

# From patent US20100209530A1, “ANTI-ALLERGEN AGENT” (priority 2007, published 2010)
